≈ marks a conversion by molar mass, not a printed value.
Tests used:
[1] = test system: MDA-MB-231 breast cancer cells; assay: Murine flank tumour model, synthesized compound (II) (DHODO): tumour volume; type: in vivo, nude mice (strain J:NU)
Description: Test material was dissolved in DMSO and the final injectable solution was prepared using PBS. Homozygous outbred nude mice (strain J:NU, 6-weeks old, female) suitable as immune-deficient tumour transplant hosts will be procured from a commercial supplier (Jackson Labs, Maine, USA) and acclimatized in a barrier facility (AVC) for one week. Mice were weighed and random groups of ten mice were established based on the tumour volume and body weight as follows: To establish the tumours, MDA-MB-231 breast cancer cells (2.5 million cells in 100 pl 50:50 matrigel:DMEM) were injected subcutaneously into both right and left flanks. Tumours were evaluated over a 2-week period until sufficient volume growth (approximately 20 mm3) for subsequent analysis had occurred. During this period, body weights were measured twice weekly. Mice with established tumours were treated every second day by intraperitoneal injections of test compounds over a 4-week time course. From each group a minimum of 15 tumours were selected for analysis. Tumours were measured weekly using external calipers and volumes established using the modified ellipsoidal formula: tumour volume=0.5 (length×width2). In addition, body weights and general animal health were assessed twice weekly during the treatment period. At study termination, mice were sacrificed and tumours excised from the flank was weighed. To evaluate tumour metastasis, an explorative necropsy was conducted in each mouse and the presence and frequency of additional tumours at sites distal to the flank were assessed.

[2] = test system: U373 (glioblastoma-astrocytoma); assay: CIMA assay (tetrazolium reduction, cell viability, 72 h); type: cell-based, human; conditions: Homo sapiens, U373 MG
Description: (§1) Prepared extracts were assessed following chronic exposure conditions in which cells were seeded at 2×10^3 cells/well (96 wells-plate) and incubated with test compounds for 72 h. Each compound was evaluated over a range of concentrations (0, 10, 25, 50 or 100 μg/ml). Cell proliferation was initially assessed using a standard colorimetric indicator of metabolic activity (CIMA) assay. In this assay, tetrazole reduction was evaluated as a measure of metabolic function that evaluates mitochondrial activity to determine the extent of cell proliferation within a culture. This assay is based on the reduction of yellow tetrazolium salt to purple formazan by mitochondrial reductases enzyme in viable cells, resulting in a color change that confers a change in absorbance. Seven human cell lines were selected for primary evaluation: U373 (glioblastoma-astrocytoma), A549 (lung carcinoma), THP-1 (acute monocytic leukemia), MCF7 (mammary gland adenocarcinoma), SKOV3 (ovarian adenocarcinoma), PC3 (prostate adenocarcinoma) and CCD1079SK (fibroblast, noncancerous but proliferating) (see FIG. 2 and Table 2). Results are expressed in Table 2 as % viability (means±standard deviation of three replicates), with LD50/IC50 values in Tables 3 and 6. […] The maximum DMSO concentration was 1% at 100 μg/ml with 5% SDS used as a known toxic inducer.
(§2) Experimental: Stock solutions of the test compounds were prepared in dimethylsulfoxide (DMSO) at 10 mg/ml and stored at −20° C. until used. This preparation ensures that the DMSO content delivered to cells in culture never exceeds 1%. Appropriate cells number, based on previous assays, were seeded in 96 well plate and incubated with test compounds (up to 8 log concentrations, 0 to 50 or 100 μg/ml) for 72 h. Cell proliferation was initially assessed using a standard colorimetric indicator of metabolic activity (CIMA) assay. In this assay, reduction of yellow tetrazolium salt (MTT) to purple formazan by mitochondrial reductases enzymes in viable cells were measured as change in absorbance (λ=500-600).
(§3) Seven human cell lines were evaluated: U373 (glioblastoma-astrocytoma), A549 (lung carcinoma), PC3 (prostate adenocarcinoma), THP1 (acute monocytic leukemia), MDA-MB-231 (mammary gland adenocarcinoma), SKOV3 (ovarian adenocarcinoma) and CCD1079Sk (normal skin fibroblast) cells.

[3] = test system: CCD1079SK (fibroblast, noncancerous but proliferating); assay: as above; type: cell-based, human; conditions: Homo sapiens, Fibroblast; 1079SK; 72 h
Description: as §1, §2, §3

[4] = as above; type: cell-based, human; conditions: human
Description: as §1, §2, §3

[5] = test system: THP-1 (acute monocytic leukemia); assay: as above; type: cell-based, human; conditions: Homo sapiens
Description: as §1, §2, §3

[6] = test system: PC3 (prostate adenocarcinoma); assay: as above; type: cell-based, human; conditions: Homo sapiens
Description: as §1, §2, §3

[7] = test system: SKOV3 (ovarian adenocarcinoma); assay: as above; type: cell-based, human; conditions: Homo sapiens
Description: as §1, §2, §3

A549 (lung carcinoma) = assay: as above; type: cell-based, human; conditions: Homo sapiens
Description: as §1, §2, §3

[8] = read-out: average cell viability
[9] = THP-1, read-out: average cell viability
[10] = SK-OV-3, read-out: average cell viability
[11] = A549, read-out: average cell viability

- IC50 ([2]; U373, 72 h): 39.1 mg/L (≈ 125 µM)
- IC50 ([5]; THP-1, 72 h): 25.9 mg/L (≈ 82.8 µM)
- IC50 ([6]; PC3, 72 h): 37.7 mg/L (≈ 121 µM)
- IC50 ([7]; SK-OV-3, SKOV3, 72 h): 67.7 mg/L (≈ 217 µM)
- IC50 (A549 (lung carcinoma); A549, 72 h): 22 mg/L (≈ 70.5 µM)
SMILES: CCCCC[C@H](O)[C@H](O)/C=C/[C@@H]1CCCCCCCC(=O)O1 [compound (II), 12R, 13S-Dihydroxy-10-Octadecen-9S-olide]
- Tumour weight at necropsy ([1]; 1 mg): 0.0815 g
- Tumour size expressed in volume ([1]; 1 mg/kg, Week 0): 40.59 mm^3
- Tumour size expressed in volume ([1]; 1 mg/kg, Week 1): 36.34 mm^3
- Tumour size expressed in volume ([1]; 1 mg/kg, Week 2): 65.15 mm^3
- Tumour size expressed in volume ([1]; 1 mg/kg, Week 3): 82.66 mm^3
- Tumour size expressed in volume ([1]; 1 mg/kg, Week 4): 110.23 mm^3
- Tumour weight at necropsy ([1]; 5 mg): 0.0380 g
- tumour growth ([1]; 5 mg/kg): inhibited tumour growth
- Tumour volumes reduced by ([1]; 5 mg/kg, intraperitoneal every second day, 4 weeks): 50%
- Tumour size expressed in volume ([1]; 5 mg/kg, Week 0): 44.24 mm^3
- Tumour size expressed in volume ([1]; 5 mg/kg, Week 1): 30.47 mm^3
- Tumour size expressed in volume ([1]; 5 mg/kg, Week 2): 39.17 mm^3
- Tumour size expressed in volume ([1]; 5 mg/kg, Week 3): 43.73 mm^3
- Tumour size expressed in volume ([1]; 5 mg/kg, Week 4): 66.83 mm^3
- Tumour weight at necropsy ([1]; 10 mg): 0.0913 g
- Tumour size expressed in volume ([1]; 10 mg/kg, Week 0): 46.33 mm^3
- Tumour size expressed in volume ([1]; 10 mg/kg, Week 1): 52.86 mm^3
- Tumour size expressed in volume ([1]; 10 mg/kg, Week 2): 71.23 mm^3
- Tumour size expressed in volume ([1]; 10 mg/kg, Week 3): 73.39 mm^3
- Tumour size expressed in volume ([1]; 10 mg/kg, Week 4): 154.29 mm^3
- reduction in tumour growth ([1]; 1 and 10 mg/kg, early exponential tumour growth in these groups): No reduction in tumour growth
- viability at 1 µg/mL [2, 8]: 90%
- viability at 10 µg/mL [2, 8]: 85%
- viability at 50 µg/mL [2, 8]: 68%
- viability at 100 µg/mL [2, 8]: 3%
- IC50 [3]: 34.9 mg/L (≈ 112 µM)
- viability at 72 h, 1 ug/mL [4]: 91%
- viability at 72 h, 10 ug/mL [4]: 84%
- viability at 72 h, 50 ug/mL [4]: 90%
- viability at 72 h, 100 ug/mL [4]: 17%
- viability at 1 µg/mL [5, 9]: 96%
- viability at 10 µg/mL [5, 9]: 84%
- viability at 50 µg/mL [5, 9]: 68%
- viability at 100 µg/mL [5, 9]: 44%
- viability at 1 µg/mL [6, 8]: 100%
- viability at 10 µg/mL [6, 8]: 93%
- viability at 50 µg/mL [6, 8]: 97%
- viability at 100 µg/mL [6, 8]: 19%
- viability at 1 µg/mL [7, 10]: 97%
- viability at 10 µg/mL [7, 10]: 97%
- viability at 50 µg/mL [7, 10]: 94%
- viability at 100 µg/mL [7, 10]: 85%
- viability at 1 µg/mL (A549 (lung carcinoma); [11]): 95%
- viability at 10 µg/mL (A549 (lung carcinoma); [11]): 93%
- viability at 50 µg/mL (A549 (lung carcinoma); [11]): 92%
- viability at 100 µg/mL (A549 (lung carcinoma); [11]): 61%
